Blank lines part the entries; values can stand above or below the compound they belong to.
Columns and labels:
[1] = target: CK1ε (Homo sapiens (Human), UniProt P49674); test: CK1ε kinase assay (Caliper LABCHIP electrophoretic separation of fluoresceinated peptide substrate and product); assay type: biochemical; conditions: 200 pM enzyme, 50 μM ATP, 22 hours at room temperature
Method in brief: (§1)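 Eleven-concentration compound series in kinase reactions run for 22 hours at room temperature. Terminated with EDTA, with product conversion read by electrophoretic separation. Non-linear regression gave IC50.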

[2] = target: CK1δ (Homo sapiens (Human), UniProt P48730); test: CK1δ kinase assay (Caliper LABCHIP electrophoretic separation of fluoresceinated peptide substrate and product); assay type: biochemical; conditions: 200 pM enzyme, 50 μM ATP, 22 hours at room temperature
Method in brief: as §1

CK1δ, sequence (P48730 whole entry): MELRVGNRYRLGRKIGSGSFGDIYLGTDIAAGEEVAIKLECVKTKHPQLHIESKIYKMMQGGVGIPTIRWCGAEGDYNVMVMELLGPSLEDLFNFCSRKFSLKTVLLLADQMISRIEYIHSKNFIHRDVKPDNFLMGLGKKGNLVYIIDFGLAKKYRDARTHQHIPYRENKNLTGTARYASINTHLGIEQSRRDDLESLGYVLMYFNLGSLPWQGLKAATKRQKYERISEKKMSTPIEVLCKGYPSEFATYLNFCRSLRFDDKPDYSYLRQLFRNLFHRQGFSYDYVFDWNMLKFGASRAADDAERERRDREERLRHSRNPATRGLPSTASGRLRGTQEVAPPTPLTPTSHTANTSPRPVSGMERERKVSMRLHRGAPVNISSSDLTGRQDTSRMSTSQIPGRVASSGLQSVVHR
CK1ε, sequence (P49674 whole entry): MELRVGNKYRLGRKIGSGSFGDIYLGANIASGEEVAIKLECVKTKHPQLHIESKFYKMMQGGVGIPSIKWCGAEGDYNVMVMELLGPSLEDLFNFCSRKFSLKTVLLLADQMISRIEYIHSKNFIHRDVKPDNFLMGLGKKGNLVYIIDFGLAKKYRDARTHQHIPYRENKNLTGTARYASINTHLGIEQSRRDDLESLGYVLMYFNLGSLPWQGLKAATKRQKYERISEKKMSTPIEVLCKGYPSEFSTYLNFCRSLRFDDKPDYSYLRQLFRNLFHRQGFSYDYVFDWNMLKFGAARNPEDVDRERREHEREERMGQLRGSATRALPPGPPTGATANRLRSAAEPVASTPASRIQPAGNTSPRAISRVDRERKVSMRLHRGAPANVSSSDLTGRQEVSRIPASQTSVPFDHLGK

SMILES: NS(=O)(=O)CCCn1cnc(-c2ccc(F)cc2)c1-c1ccc2nc(NC(=O)c3ccnc(F)c3)cn2n1 [Compound 241]
IC50 [1]: 1.4 nM
IC50 [2]: 0.362 nM

SMILES: O=C(Nc1cn2nc(-c3c(-c4cccc(Cl)c4)ncn3CC(F)F)ccc2n1)c1ccnc(F)c1 [Compound 242, N-(6-(4-(3-chlorophenyl)-1-(2,2-difluoroethyl)-1H-imidazol-5-yl)imidazo[1,2-b]pyridazin-2-yl)-2-fluoroisonicotinamide]
IC50 [1]: 12 nM
IC50 [2]: 2.16 nM

SMILES: O=C(Nc1cn2nc(-c3c(-c4ccccc4)ncn3CC(F)F)ccc2n1)c1ccnc(F)c1 [Compound 243, N-(6-(1-(2,2-difluoroethyl)-4-phenyl-1H-imidazol-5-yl)imidazo[1,2-b]pyridazin-2-yl)-2-fluoroisonicotinamide]
IC50 [1]: 5.96 nM
IC50 [2]: 0.652 nM

SMILES: O=C(Nc1cn2nc(-c3c(-c4cccc(F)c4)ncn3CC(F)F)ccc2n1)c1ccnc(F)c1 [Compound 245, N-(6-(1-(2,2-difluoroethyl)-4-(3-fluorophenyl)-1H-imidazol-5-yl)imidazo[1,2-b]pyridazin-2-yl)-2-fluoroisonicotinamide]
IC50 [1]: 7.43 nM
IC50 [2]: 0.899 nM

SMILES: O=C(Nc1cn2nc(-c3c(-c4ccccc4F)ncn3CC(F)F)ccc2n1)c1ccnc(F)c1 [Compound 246, N-(6-(1,(2,2-difluoroethyl)-4-(2-fluorophenyl)-1H-imidazol-5-yl)imidazo[1,2-b]pyridazin-2-yl)-2-fluoroisonicotinamide]
IC50 [1]: 5.96 nM
IC50 [2]: 0.769 nM

SMILES: O=C(Nc1cn2nc(-c3c(-c4ccc(F)cc4)ncn3CC3CC(F)(F)C3)ccc2n1)c1ccnc(F)c1 [Compound 249, N-(6-(1-((3,3-difluorocyclobutyl)methyl)-4-(4-fluorophenyl)-1H-imidazol-5-yl)imidazo[1,2-b]pyridazin-2-yl)-2-fluoroiso-nicotinamide]
IC50 [1]: 1.1 nM
IC50 [2]: 0.371 nM

SMILES: O=C(Nc1cn2nc(-c3c(-c4ccc(F)cc4)ncn3CC(=O)N3CCCC3)ccc2n1)c1ccnc(F)c1 [Compound 250, 2-fluoro-N-(6-(4-(4-fluorophenyl)-1-(2-oxo-2-(1-pyrrolidinyl)ethyl)-1H-imidazol-5-yl)imidazo[1,2-b]pyridazin-2-yl)isonicotinamide]
IC50 [1]: 8.38 nM
IC50 [2]: 0.292 nM

SMILES: O=C(Nc1cn2nc(-c3c(-c4ccc(F)cc4)ncn3CCN3CCC(F)(F)CC3)ccc2n1)c1ccnc(F)c1 [Compound 251, N-(6-(1-(2-(4,4-difluoro-1-piperi-dinyl)ethyl)-4-(4-fluorophenyl)-1H-imidazol-5-yl)imidazo[1,2-b]pyridazin-2-yl)-2-fluoroiso-nicotinamide]
IC50 [1]: 5.38 nM
IC50 [2]: 0.385 nM

SMILES: O=C(Nc1cn2nc(-c3c(-c4ccc(F)cc4)ncn3CCOCC(F)(F)F)ccc2n1)c1ccnc(F)c1 [Compound 252, 2-fluoro-N-(6-(4-(4-fluorophenyl)-1-(2-(2,2,2-trifluoroethoxy)ethyl)-1H-imidazol-5-yl)imidazo[1,2-b]pyridazin-2-yl)isonicotinamide]
IC50 [1]: 2.51 nM
IC50 [2]: 0.347 nM

SMILES: Cn1cnc(Cn2cnc(-c3ccc(F)cc3)c2-c2ccc3nc(NC(=O)c4ccnc(F)c4)cn3n2)c1 [Compound 253, 2-fluoro-N-(6-(4-(4-fluorophenyl)-1-((1-methyl-1H-imidazol-4-yl)methyl)-1H-imidazol-5-yl)imidazo[1,2-b]pyridazin-2-yl) isonicotinamide]
IC50 [1]: 18 nM
IC50 [2]: 1.15 nM

SMILES: O=C(Nc1cn2nc(-c3c(-c4ccc(F)cc4)ncn3CCn3cccn3)ccc2n1)c1ccnc(F)c1 [Compound 254, 2-fluoro-N-(6-(4-(4-fluorophenyl)-1-(2-(1H-pyrazol-1-yl)ethyl)-1H-imidazol-5-yl)imidazo[1,2-b]pyridazin-2-yl)isonicotinamide]
IC50 [1]: 18.7 nM
IC50 [2]: 1.12 nM

SMILES: O=C(Nc1cn2nc(-c3c(-c4ccc(F)cc4)ncn3CCc3c[nH]cn3)ccc2n1)c1ccnc(F)c1 [Compound 255, 2-fluoro-N-(6-(4-(4-fluorophenyl)-1-(2-(1H-imidazol-4-yl)ethyl)-1H-imidazol-5-yl)imidazo[1,2-b]pyridazin-2-yl)isonicotinamide]
IC50 [1]: 2.45 nM
IC50 [2]: 0.386 nM

SMILES: CC(C)(C)C1CCC(n2cnc(-c3ccc(F)cc3)c2-c2ccc3nc(NC(=O)c4ccnc(F)c4)cn3n2)CC1 (stereo not shown) [Compound 256, N-(6-(1-(4-tert-butylcyclohexyl)-4-(4-fluorophenyl)-1H-imidazol-5-yl)imidazo[1,2-b]pyridazin-2-yl)-2-fluoroisonicotinamide]
IC50 [1]: 230 nM
IC50 [2]: 10.2 nM

SMILES: O=C(Nc1cn2nc(-c3c(-c4ccc(F)cc4)ncn3C3CCCCC3)ccc2n1)c1ccnc(F)c1 [Compound 257, N-(6-(1-cyclohexyl-4-(4-fluoro-phenyl)-1H-imidazol-5-yl)imidazo[1,2-b]pyridazin-2-yl)-2-fluoroisonicotinamide]
IC50 [1]: 2.29 nM
IC50 [2]: 0.325 nM

SMILES: CC(C)(C)Cn1cnc(-c2ccc(F)cc2)c1-c1ccc2nc(NC(=O)c3ccnc(F)c3)cn2n1 [Compound 258, N-(6-(1-(2,2-dimethylpropyl)-4-(4-fluorophenyl)-1H-imidazol-5-yl)imidazo[1,2-b]pyridazin-2-yl)-2-fluoroisonicotinamide]
IC50 [1]: 6.56 nM
IC50 [2]: 0.393 nM

Next, values leading:

IC50 [1]: 3.17 nM
IC50 [2]: 0.314 nM
SMILES: Cn1cc(Cn2cnc(-c3ccc(F)cc3)c2-c2ccc3nc(NC(=O)c4ccnc(F)c4)cn3n2)cn1 [Compound 259, 2-fluoro-N-(6-(4-(4-fluorophenyl)-1-((1-methyl-1H-pyrazol-4-yl)methyl)-1H-imidazol-5-yl)imidazo[1,2-b]pyridazin-2-yl) isonicotinamide]

IC50 [1]: 14.8 nM
IC50 [2]: 0.403 nM
SMILES: O=C(Nc1cn2nc(-c3c(-c4ccc(F)cc4)ncn3CCN3CCCCC3=O)ccc2n1)c1ccnc(F)c1 [Compound 261, 2-fluoro-N-(6-(4-(4-fluorophenyl)-1-(2-(2-oxopiperidin-1-yl)ethyl)-1H-imidazol-5-yl)imidazo[1,2-b]pyridazin-2-yl)isonicotinamide]

IC50 [1]: 3.48 nM
IC50 [2]: 0.331 nM
SMILES: O=C(Nc1cn2nc(-c3c(-c4ccc(F)cc4)ncn3C3CC(F)(F)C3)ccc2n1)c1ccnc(F)c1 [Compound 262, N-(6-(1-(3,3-difluorocyclobutyl)-4-(4-fluorophenyl)-1H-imidazol-5-yl)imidazo[1,2-b]pyridazin-2-yl)-2-fluoroisonicotinamide]

IC50 [1]: 5.4 nM
IC50 [2]: 0.436 nM
SMILES: O=C(Nc1cn2nc(-c3c(-c4ccc(F)cc4)ncn3CCCn3ccnc3)ccc2n1)c1ccnc(F)c1 [Compound 263, 2-fluoro-N-(6-(4-(4-fluorophenyl)-1-(3-(1H-imidazol-1-yl)propyl)-1H-imidazol-5-yl)imidazo[1,2-b]pyridazin-2-yl)isonicotinamide]

IC50 [1]: 156 nM
IC50 [2]: 41.5 nM
SMILES: CC(C)(C)c1cc(Cn2cnc(-c3ccc(F)cc3)c2-c2ccc3nc(NC(=O)c4ccnc(F)c4)cn3n2)n[nH]1 [Compound 264]

IC50 [1]: 0.719 nM
IC50 [2]: 0.147 nM
SMILES: O=C(Nc1cn2nc(-c3c(-c4ccc(F)cc4)ncn3CCc3cn[nH]c3)ccc2n1)c1ccnc(F)c1 [Compound 265]

IC50 [1]: 14.1 nM
IC50 [2]: 0.416 nM
SMILES: O=C(Nc1cn2nc(-c3c(-c4ccc(F)cc4)ncn3CC(=O)N3CCOCC3)ccc2n1)c1ccnc(F)c1 [Compound 266, 2-fluoro-N-(6-(4-(4-fluorophenyl)-1-(2-(4-morpholinyl)-2-oxoethyl)-1H-imidazol-5-yl)imidazo[1,2-b]pyridazin-2-yl)isonicotinamide]

IC50 [1]: 1.77 nM
IC50 [2]: 0.287 nM
SMILES: O=C1CN(CCn2cnc(-c3ccc(F)cc3)c2-c2ccc3nc(NC(=O)c4ccnc(F)c4)cn3n2)CCN1 [Compound 267, 2-fluoro-N-(6-(4-(4-fluorophenyl)-1-(2-(3-oxo-1-piperazinyl)ethyl)-1H-imidazol-5-yl)imidazo[1,2-b]pyridazin-2-yl)isonicotinamide]

IC50 [1]: 7.57 nM
IC50 [2]: 0.419 nM
SMILES: NC(=O)Cn1cnc(-c2ccc(F)cc2)c1-c1ccc2nc(NC(=O)c3ccnc(F)c3)cn2n1 [Compound 268, N-(6-(1-(2-amino-2-oxoethyl)-4-(4-fluorophenyl)-1H-imidazol-5-yl)imidazo[1,2-b]pyridazin-2-yl)-2-fluoroisonicotinamide]

IC50 [1]: 9.39 nM
IC50 [2]: 1.08 nM
SMILES: Cn1ccc(Cn2cnc(-c3ccc(F)cc3)c2-c2ccc3nc(NC(=O)c4ccnc(F)c4)cn3n2)n1 [Compound 269, 2-fluoro-N-(6-(4-(4-fluorophenyl)-1-((1-methyl-1H-pyrazol-3-yl)methyl)-1H-imidazol-5-yl)imidazo[1,2-b]pyridazin-2-yl) isonicotinamide]

IC50 [1]: 72.5 nM
IC50 [2]: 9.45 nM
SMILES: O=C(Nc1cn2nc(-c3c(-c4ccc(F)cc4)ncn3Cc3cc(C4CC4)[nH]n3)ccc2n1)c1ccnc(F)c1 [Compound 270, N-(6-(1-((5-cyclopropyl-1H-pyrazol-3-yl)methyl)-4-(4-fluorophenyl)-1H-imidazol-5-yl)imidazo[1,2-b]pyridazin-2-yl)-2-fluoroiso-nicotinamide]

IC50 [1]: 5.97 nM
IC50 [2]: 0.897 nM
SMILES: Cc1nccn1CCCn1cnc(-c2ccc(F)cc2)c1-c1ccc2nc(NC(=O)c3ccnc(F)c3)cn2n1 [Compound 271, 2-fluoro-N-(6-(4-(4-fluorophenyl)-1-(3-(2-methyl-1H-imidazol-1-yl)propyl)-1H-imidazol-5-yl)imidazo[1,2-b]pyridazin-2-yl) isonicotinamide]

IC50 [1]: 16.6 nM
IC50 [2]: 1.65 nM
SMILES: O=C(Nc1cn2nc(-c3c(-c4ccc(F)cc4)ncn3CCN3CCCC3=O)ccc2n1)c1ccnc(F)c1 [Compound 272, 2-fluoro-N-(6-(4-(4-fluorophenyl)-1-(2-(2-oxo-1-pyrrolidinyl)ethyl)-1H-imidazol-5-yl)imidazo[1,2-b]pyridazin-2-yl)isonicotinamide]

IC50 [1]: 1.01 nM
IC50 [2]: 0.257 nM
SMILES: CCCn1cnc(-c2ccc(F)cc2)c1-c1ccc2nc(NC(=O)C(C)(C)C)cn2n1 [Compound 273, N-(6-(4-(4-Fluorophenyl)-1-propyl-1H-imidazol-5-yl)imidazo[1,2-b]pyridazin-2-yl)pivalamide]
